Results on three compounds are retold here after patent publication US20200155555A1, “VITAMIN RECEPTOR DRUG DELIVERY CONJUGATES FOR TREATING INFLAMMATION” (Endocyte, Inc., priority 2007, published 2020).

Series [1] relates to Proliferating Cell Nuclear Antigen (PCNA) in RAW264.7 cells. As to the kind of experiment: Western blot for proliferating cell nuclear antigen. It counts as cell-based, murine. The conditions noted are these: 1-1000 nM; EC0565 2 h treatment and 48 h chase, everolimus 48 h.
The subject of series [2] is rats with adjuvant-induced arthritis (AIA). As to the kind of experiment: Adjuvant-induced arthritis (AIA) model. The protocol: Female Lewis rats were fed a folate-deficient diet (Harlan Teklad, Indianapolis, Ind.) for 9-10 days prior to arthritis induction. The adjuvant-induced arthritis (AIA) was induced by intradermal inoculation (at the base of tail) of 0.5 mg of heat-killed Mycobacteria butyricum (BD Diagnostic Systems, Sparks, Md.) in 100 μL light mineral oil (Sigma). Ten days after arthritis induction, paw edema in rats was assessed using a modified arthritis scoring system: 0=no arthritis; 1=swelling in one type of joint; 2=swelling in two types of joint; 3=swelling in three types of joint; 4=swelling of the entire paw. A total score for each rat is calculated by summarizing the scores for each of the four paws, giving a maximum score of 16 for each rat. On Day 10 post arthritis induction, rats with a total arthritis score of ≥2 were removed from the study and the remaining rats were distributed evenly across the control and treatment groups (n=5 for all groups except that n=2-3 for healthy controls). All treatments started on Day 10 unless mentioned otherwise. […]
Rats with adjuvant arthritis were treated subcutaneously with EC0932 (250 nmol/kg) in the absence or presence of 500-fold excess of EC0923 (125 μmol/kg) on days 10, 13, 17, and 20 post arthritis induction. The animals in the healthy and arthritis control groups were left untreated. The arthritis scores and animal body weights were recorded three times a week (see FIG. 19A, B). At the completion of study (day 24), the rats were euthanized by CO2 asphyxiation and processed for paw and spleen weights (see FIG. 20A, B).
The rat adjuvant induced arthritis (AIA) model resembles the characteristics of RA in humans and has been widely used to study the impact of novel anti-inflammatory agents.

Series [3] addresses T1, DHFR (Mus musculus, UniProt P00375).
T1 construct: endogenous in cells; host or cells: RAW264.7 cells
T1 sequence (P00375 1-187): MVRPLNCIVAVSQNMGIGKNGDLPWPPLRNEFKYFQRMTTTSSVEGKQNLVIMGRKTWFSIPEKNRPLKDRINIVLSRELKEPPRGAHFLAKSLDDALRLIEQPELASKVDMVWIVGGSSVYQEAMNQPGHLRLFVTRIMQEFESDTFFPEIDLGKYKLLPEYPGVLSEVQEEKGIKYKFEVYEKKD
As to the kind of experiment: DHFR activity in lysate of treated RAW264.7 cells. It counts as cell-based, murine. The settings on record: excess folic acid alone, 10 μM. Here is the method:
RAW264.7 cells were treated with vehicle (medium), EC0746 (100 nM) without or with 100-fold excess free folate, aminopterin (AMT, 100 nM), methotrexate (MTX, 100 nM), or excess free folate alone (10 μM). After 1 h incubation, the drug-containing media were replaced with fresh medium and the cells were allowed to incubate further for 24 h. At the end of incubation, the cells were lysed and the DHFR activity in cell lysates was measured using a commercial DHFR assay kit (Sigma-Aldrich, Saint Louis, Mo.).

The nature of series [4]: Plasma pharmacokinetics after a single i.v. or s.c. dose of EC0565. The settings on record: rats. Here is the method:
The bioavailability of EC0565 after subcutaneous injection was measured. Female Lewis rats with rounded tip jugular vein catheters (Harlan) were fed regular rodent diet. The treated animals were given a single intravenous or subcutaneous dose of EC0565 at 2 μmol/kg. […] For subcutaneous administration (FIG. 52B), whole blood samples (300 μl) were collected from the animals at 1 min, 10 min, 30 min, 1 h, 2 h, 3 h, 4 h, 8 h, and 12 h post injection. The blood samples were placed into anti-coagulant tubes containing 1.7 mg/mL of K3-EDTA and 0.35 mg/mL of N-maleoyl-beta-alanine (0.35 mg/mL). Plasma samples were obtained by centrifugation for 3 min at ˜2,000 g and stored at −80° C. The amount of EC0565 and its released base drug (everolimus) were determined by HPLC using the EC0565 injection solution as the standard.

Setting [5] is: oral everolimus 500 nmol/kg tiw.

On to `CO[C@H]1C[C@@H]2CC[C@@H](C)[C@@](O)(O2)C(=O)C(=O)N2CCCC[C@H]2C(=O)O[C@H]([C@H](C)C[C@@H]2CC[C@@H](OCCO)[C@H](OC)C2)CC(=O)[C@H](C)/C=C(\C)[C@@H](O)[C@@H](OC)C(=O)[C@H](C)C[C@H](C)/C=C/C=C/C=C/1C` [everolimus], for which the “effect on PCNA in synchronized RAW264.7 cells” value in series [1] is listed as “inhibited PCNA activities”. The “spleen weight compared to arthritic controls” value in series [2] (500 nmol/kg 3 times a week, EC0565 sc, everolimus oral) is “significantly decreased spleen weight compared to arthritic controls”. In series [2] (setting [5]), the “decrease in dorsal to ventral paw thickness” value is 44%, the “decrease in summed histological score” value was 52% and the “reductions in all scored histology parameters vs untreated controls” value was 44-61%.
Regarding `Nc1nc2ncc(CNc3ccc(C(=O)N[C@@H](CCC(=O)O)C(=O)O)cc3)nc2c(=O)[nH]1` [folic acid], the “effect on DHFR activity in RAW264.7 cells” value in series [3] is “did not have any impact”.
As for `CO[C@H]1C[C@@H]2CC[C@@H](C)[C@@](O)(O2)C(=O)C(=O)N2CCCC[C@H]2C(=O)O[C@H]([C@H](C)C[C@@H]2CC[C@@H](OCCOC(=O)OCCSSC[C@H](NC(=O)[C@H](CCC(=O)NC[C@H](O)[C@@H](O)[C@H](O)[C@H](O)CO)NC(=O)[C@H](CCC(=O)O)NC(=O)[C@H](CCC(=O)NC[C@H](O)[C@@H](O)[C@H](O)[C@H](O)CO)NC(=O)[C@H](CCC(=O)O)NC(=O)[C@H](CCC(=O)NC[C@H](O)[C@@H](O)[C@H](O)[C@H](O)CO)NC(=O)CC[C@H](NC(=O)c3ccc(NCc4cnc5nc(N)[nH]c(=O)c5n4)cc3)C(=O)O)C(=O)O)[C@H](OC)C2)CC(=O)[C@H](C)/C=C(\C)[C@@H](O)[C@@H](OC)C(=O)[C@H](C)C[C@H](C)/C=C/C=C/C=C/1C` [EC0565, Everolimus-EC0488 Conjugate], the “free drug (everolimus) exposure/release in plasma, based on AUC” value in series [4] (single intravenous dose of EC0565, 2 μmol/kg) is “approximately 18%”; in series [4] (single subcutaneous dose of EC0565, 2 μmol/kg) it was about 17%.
